Test results taken from ChEMBL document CHEMBL4651402, “Screening of ~5500 FDA-approved drugs and clinical candidates for anti-SARS-CoV-2 activity” (2021).
pIC50: −log10 of the molar value.

System: SARS-CoV-2
Experiment: microbe, parasite or virus in culture
Details: Severe acute respiratory syndrome coronavirus 2, Vero C1008, 48 h; for IC50: read-out: pIC50 (converted)

COc1ccc(-c2ccc(=N)n(CCCC(=O)O)n2)cc1 [GABAZINE]
pIC50: < 4.70 | IC50: > 20 µM

O=C1O[C@H](CO)[C@@H](O)[C@H](O)[C@H]1O [GLUCONOLACTONE]
pIC50: < 4.70 | IC50: > 20 µM

CNC(=O)N1CC(Oc2cccc(C(F)(F)F)c2)C1 [FLUZINAMIDE]
pIC50: < 4.70 | IC50: > 20 µM

CN1CCC/C1=N\C(=N\c1ccccc1)N1CCOCC1 [LINOGLIRIDE]
pIC50: < 4.70 | IC50: > 20 µM

CN1C(=O)C(NC(=O)c2cc3ccccc3[nH]2)N=C(c2ccccc2)c2ccccc21 (stereo not given)
pIC50: < 4.70 | IC50: > 20 µM

CC(C)[C@H]1CC[C@H](C(=O)N[C@H](Cc2ccccc2)C(=O)O)CC1 [NATEGLINIDE]
pIC50: < 4.70 | IC50: > 20 µM

O=C(O)Cc1ccc(OCCNCC(O)c2ccccc2)cc1 (stereo not given)
pIC50: < 4.70 | IC50: > 20 µM

C=C(c1ccc(C(=O)O)cc1)c1cc2c(cc1C)C(C)(C)CCC2(C)C [BEXAROTENE]
pIC50: < 4.70 | IC50: > 20 µM

C1N2CN3CN1CN(C2)C3 [METHENAMINE]
pIC50: < 4.70 | IC50: > 20 µM

CC(=O)OCC(=O)[C@@]1(O)CC[C@H]2[C@@H]3CCC4=CC(=O)CC[C@]4(C)C3(F)[C@@H](O)C[C@@]21C (stereo not given in full)
pIC50: < 4.70 | IC50: > 20 µM

O=C(NCCNCC(O)COc1ccc(O)cc1)N1CCOCC1 (stereo not given) [XAMOTEROL]
pIC50: < 4.70 | IC50: > 20 µM

O=[N+]([O-])c1cnc(-c2ccc(F)cc2)n1CCO [FLUNIDAZOLE]
pIC50: < 4.70 | IC50: > 20 µM

COc1cc2c(cc1O)CC[C@@H]1[C@@H]2CC[C@]2(C)[C@@H](O)CC[C@@H]12 [2-METHOXYESTRADIOL]
pIC50: < 4.70 | IC50: > 20 µM

CC[C@H]1OC(=O)[C@H](C)C(=O)[C@H](C)[C@@H](O[C@@H]2O[C@H](C)C[C@H](N(C)C)[C@H]2O)[C@](C)(OC)C[C@@H](C)C(=O)[C@H](C)[C@@H]2N(CCCCn3cnc(-c4cccnc4)c3)C(=O)O[C@@]21C
pIC50: < 4.70 | IC50: > 20 µM

Cc1ccc(C(=O)N(CCCN)[C@@H](c2nc3cc(Cl)ccc3c(=O)n2Cc2ccccc2)C(C)C)cc1 [ISPINESIB]
pIC50: < 4.70 | IC50: > 20 µM

Nc1nc(O)c2c(n1)NCC(CNc1ccc(C(=O)N[C@@H](CCC(=O)O)C(=O)O)cc1)N2 (stereo not given in full)
pIC50: < 4.70 | IC50: > 20 µM

COc1cc2nc(N3CCN(C(=O)C4COc5ccccc5O4)CC3)nc(N)c2cc1OC (stereo not given) [DOXAZOSIN]
pIC50: < 4.70 | IC50: > 20 µM

COc1ccc2c3c1OC1C(OC(C)=O)=CCC4C(C2)N(C)CCC314 (stereo not given)
pIC50: < 4.70 | IC50: > 20 µM

COC1=C[C@@H]2[C@@H]3Cc4ccc(OC)c(O)c4[C@]2(CCN3C)CC1=O [SINOMENINE]
pIC50: < 4.70 | IC50: > 20 µM

Cc1cc(NS(=O)(=O)c2ccc(N)cc2)no1 [SULFAMETHOXAZOLE]
pIC50: < 4.70 | IC50: > 20 µM

CC(C)(C)NCC(O)COc1cccc2c1CC(O)C(O)C2 (stereo not given) [NADOLOL]
pIC50: < 4.70 | IC50: > 20 µM

CC(C)(N)C(=O)N[C@H](COCc1ccccc1)C(=O)N1CCC2(CC1)CN(S(C)(=O)=O)c1ccccc12 [IBUTAMOREN]
pIC50: < 4.70 | IC50: > 20 µM

CNCCCC1(C)C(=O)N(c2ccccc2)c2ccccc21 (stereo not given) [AMEDALIN]
pIC50: < 4.70 | IC50: > 20 µM

O=C(O)[C@H](O)[C@@H](O)[C@H](O[C@@H]1O[C@H](CO)[C@H](O)[C@H](O)[C@H]1O)[C@H](O)CO
pIC50: < 4.70 | IC50: > 20 µM

C[S+]([O-])c1ccc(-c2nc(-c3ccc(F)cc3)c(-c3ccncc3)[nH]2)cc1 (stereo not given) [SB-203580]
pIC50: < 4.70 | IC50: > 20 µM

C=C1[C@@H]2CC[C@H]3[C@]4(C)C[C@H](O[C@H]5O[C@H](CO)[C@@H](OS(=O)(=O)O)[C@H](OS(=O)(=O)O)[C@H]5OC(=O)CC(C)C)C[C@@H](C(=O)O)[C@H]4CC[C@]3(C2)[C@H]1O
pIC50: < 4.70 | IC50: > 20 µM

CN(CCO)CC(O)Cn1cnc2c1c(=O)n(C)c(=O)n2C (stereo not given) [XANTHINOL]
pIC50: < 4.70 | IC50: > 20 µM

O=C(O)C(O)C(O)C(O)C(O)C(O)CO (stereo not given)
pIC50: < 4.70 | IC50: > 20 µM

COc1ccc2c3c1O[C@H]1[C@@H](O)C=C[C@H]4C(C2)N(C)CCC341 (stereo not given in full)
pIC50: < 4.70 | IC50: > 20 µM

CCOC(=O)C(CCc1ccccc1)NC(C)C(=O)N(CC(=O)O)C1Cc2ccccc2C1 (stereo not given)
pIC50: < 4.70 | IC50: > 20 µM

O=c1cc(CO)occ1O [KOJIC ACID]
pIC50: < 4.70 | IC50: > 20 µM

Clc1ccc(COC(Cn2ccnc2)c2ccc(Cl)cc2Cl)cc1 (stereo not given) [ECONAZOLE]
pIC50: < 4.70 | IC50: > 20 µM

CNCCC(Oc1ccc(C(F)(F)F)cc1)c1ccccc1 (stereo not given) [FLUOXETINE]
pIC50: < 4.70 | IC50: > 20 µM

C/C=C(\C)C(=O)OC1C(OC(C)=O)C2(CO)C(O)CC3(C)C(=CCC4C5(C)CCC(OC6OC(C(=O)O)C(OC7OC(CO)C(O)C(O)C7O)C(O)C6OC6OC(CO)C(O)C(O)C6O)C(C)(CO)C5CCC43C)C2CC1(C)C (stereo not given)
pIC50: < 4.70 | IC50: > 20 µM

CC(C)NCCCC1(C(N)=O)c2ccccc2-c2ccccc21 [INDECAINIDE]
pIC50: < 4.70 | IC50: > 20 µM

CCCCNc1cc(C(=O)O)cc(S(N)(=O)=O)c1Oc1ccccc1 [BUMETANIDE]
pIC50: < 4.70 | IC50: > 20 µM

C/C=C/C/C=C/CCC(=O)[C@H]1O[C@H]1C(N)=O [CERULENIN]
pIC50: < 4.70 | IC50: > 20 µM

COC[C@@H](c1ccc(C(F)(F)F)cc1)N1CCN(C2(C)CCN(C(=O)c3c(C)ncnc3C)CC2)C[C@@H]1C [VICRIVIROC]
pIC50: < 4.70 | IC50: > 20 µM

C[C@@H]1NC(=O)C2(CCCC2)NC1=O
pIC50: < 4.70 | IC50: > 20 µM

Cc1ccc(Cc2cc3c(=O)n([C@H]4CCCC[C@@H]4O)cnc3c3ccccc23)cn1 [MK-7622]
pIC50: < 4.70 | IC50: > 20 µM

COc1ccc2cccc(CCNC(C)=O)c2c1 [AGOMELATINE]
pIC50: < 4.70 | IC50: > 20 µM

O=C1CCCO1 [BUTYROLACTONE]
pIC50: < 4.70 | IC50: > 20 µM

CN(C)CCSc1nc2ccccc2cc1-c1ccccc1
pIC50: < 4.70 | IC50: > 20 µM

C=CC(=O)N1C[C@H](COc2nc(Nc3cnn(C)c3)nc3[nH]cc(Cl)c23)[C@@H](OC)C1 [PF-06459988]
pIC50: < 4.70 | IC50: > 20 µM

CCCC(C)(COC(N)=O)COC(N)=O [MEPROBAMATE]
pIC50: < 4.70 | IC50: > 20 µM

N#C[C@@H]1C[C@@H]2C[C@@H]2N1C(=O)[C@@H](N)C12CC3CC(CC(O)(C3)C1)C2 [SAXAGLIPTIN ANHYDROUS]
pIC50: < 4.70 | IC50: > 20 µM

CN1N=C2CCN(C(=O)[C@@H](COCc3ccccc3)NC(=O)C(C)(C)N)C[C@@]2(Cc2ccccc2)C1=O [CAPROMORELIN]
pIC50: < 4.70 | IC50: > 20 µM

CS(=O)(=O)OCCCCOS(C)(=O)=O [BUSULFAN]
pIC50: < 4.70 | IC50: > 20 µM

Cc1cc(SCc2sc(-c3ccc(C(F)(F)F)cc3)nc2C)ccc1OCC(=O)O [GW501516]
pIC50: < 4.70 | IC50: > 20 µM

CC(=O)N1CCCC1C(=O)O (stereo not given) [N-ACETYLPROLINE]
pIC50: < 4.70 | IC50: > 20 µM

CCC12CCN(CC3(O)CC3)C(Cc3ccc(O)cc31)C2(C)C (stereo not given) [BREMAZOCINE]
pIC50: < 4.70 | IC50: > 20 µM

O=C(O)CC(S)C(=O)O (stereo not given)
pIC50: < 4.70 | IC50: > 20 µM

O=C(c1ccc(F)cc1)C1CCN(CCCCn2c(=O)[nH]c3ccccc3c2=O)CC1 [BUTANSERIN]
pIC50: < 4.70 | IC50: > 20 µM

CSCC[C@H](N)C(=O)N[C@@]1(C(=O)O)CS(=O)(=O)[C@H]2[C@H](C(=O)O)[C@H]21 [POMAGLUMETAD METHIONIL ANHYDROUS]
pIC50: < 4.70 | IC50: > 20 µM

O=C(O)Cc1nn(Cc2ccc(Br)cc2F)c(=O)c2ccccc12 [PONALRESTAT]
pIC50: < 4.70 | IC50: > 20 µM

CCN1CC(CCN2CCOCC2)C(c2ccccc2)(c2ccccc2)C1=O (stereo not given) [DOXAPRAM]
pIC50: < 4.70 | IC50: > 20 µM

CCCCCCCCCCCCCCC1(C(=O)O)CO1 (stereo not given) [PALMOXIRATE]
pIC50: < 4.70 | IC50: > 20 µM

COc1ccc(CCC(=O)c2c(O)cc(O[C@@H]3O[C@H](CO)[C@@H](O)[C@H](O)[C@H]3O[C@@H]3O[C@@H](C)[C@H](O)[C@@H](O)[C@H]3O)cc2O)cc1O [NEOHESPERIDIN DIHYDROCHALCONE]
pIC50: < 4.70 | IC50: > 20 µM

CCCNS(=O)(=O)Nc1ncnc(OCCOc2ncc(Br)cn2)c1-c1ccc(Br)cc1
pIC50: < 4.70 | IC50: > 20 µM

Nc1ncnc(Nc2ccccc2)n1 [AMANOZINE]
pIC50: < 4.70 | IC50: > 20 µM

CO[C@H]1C[C@H](O[C@H]2[C@H](C)[C@@H](O[C@@H]3O[C@H](C)C[C@H](N(C)C)[C@H]3OC(C)=O)[C@@H](C)C[C@@]3(CO3)C(=O)[C@H](C)[C@H](OC(C)=O)[C@@H](C)[C@@H](C)OC(=O)[C@@H]2C)O[C@@H](C)[C@@H]1OC(C)=O
pIC50: < 4.70 | IC50: > 20 µM

CCCCCC(=O)CCC1(C)C2Cc3ccc(O)cc3C1(C)CCN2C (stereo not given)
pIC50: < 4.70 | IC50: > 20 µM

CN1CCc2c(c3ccccc3n2Cc2ccccc2)C1 [MEBHYDROLIN]
pIC50: < 4.70 | IC50: > 20 µM

CCN(CC)CCCCC(NC(=O)c1ccc([N+](=O)[O-])cc1)c1ccccc1 (stereo not given)
pIC50: < 4.70 | IC50: > 20 µM

CNC(=C[N+](=O)[O-])NCCSCc1csc(CN(C)C)n1 [NIZATIDINE]
pIC50: < 4.70 | IC50: > 20 µM

CC1O[C@@H](OC2CC[C@@]3(C)C(CCC4C3CC(O)[C@]3(C)[C@@H](C5=CC(=O)OC5)CCC43O)C2)CC(O)[C@@H]1O[C@H]1CC(O)[C@H](O[C@H]2CC(O)[C@H](O[C@@H]3OC(CO)[C@@H](O)C(O)C3O)C(C)O2)C(C)O1 (stereo not given in full)
pIC50: < 4.70 | IC50: > 20 µM

C1CCC2(C1)C1CN(CC3CC3)CC2CN(CC2CC2)C1
pIC50: < 4.70 | IC50: > 20 µM

c1ccc2c(c1)OCC(C1=NCCN1)O2 (stereo not given) [IDAZOXAN]
pIC50: < 4.70 | IC50: > 20 µM

O=S(=O)(O)CCN1CCN(CCO)CC1
pIC50: < 4.70 | IC50: > 20 µM

COc1cc2c(cc1OC)CC(=O)N(CCCN(C)C[C@H]1Cc3cc(OC)c(OC)cc31)CC2 [IVABRADINE]
pIC50: < 4.70 | IC50: > 20 µM
